From PubChem BioAssay AID2060494 (Molecular Pharmacology Branch, DTP, NCI, 2025)

System: 435261-313-R-J1-PDC complex spheroid viability
Experiment: Anticancer human tumor 435261-313-R-J1-PDC patient-derived colon adenocarcinoma cell line growth inhibition [GQUAD]
Settings: for IC50: curve of first compound; for viability, T/C: stronger effect = lower value; active means viability on the fitted dose curve at most 10% of control; inactive means the rest
Source text: DNA G-quadruplex Stabilizer Agents in Combinations in Complex Spheroids
A high-throughput screen of multi-cell type tumor spheroids was designed to identify active combinations of DNA G-quadruplex stabilizer agents and targeted small molecules. Complex spheroids include a stromal component modeled by human endothelial cells (HUVEC) and fibroblasts modeled by human mesenchymal stem cells (MSCs). The concentration ranges selected for each drug and investigational agent were based upon clinically achievable concentrations if the clinical Cmax of the agent was known.
Compounds. The drugs and investigational agents: pidnarulex (CX-5461; NSC782164), APTO-253 (NSC789042), BRACO-19 (NSC847499), peposertib (NSC802822), ceralasertib (NSC780249), elimusertib (NSC800525), camonsertib (NSC841442), AZD-1390 (NSC803789), olaparib (NSC753686), talazoparib (NSC767125), ART-558 (NSC835418), sotorasib (NSC818433), MRTX-1133 (NSC836407), SN-38 (NSC673596), topotecan (NSC609699), etoposide (NSC141540), doxorubicin (NSC123127), gemcitabine (NSC613327), 5-fluorouracil (NSC19893), paclitaxel (NSC125973), vemurafenib (NSC761431), panobinostat (NSC761190), R-306465 (JNJ-16241199; NSC773264), adavosertib (NSC754352), TP-3654 (NSC805149), carboplatin (NSC241240), KSQ-4279 (NSC840948), and staurosporine (NSC755774) were obtained from the National Cancer Institute (NCI) Developmental Therapeutics Program Chemical Repository (34). The FDA-approved anticancer drug set is available from the NCI Developmental Therapeutics Program. […] The stock solutions were prepared in dimethyl sulfoxide (DMSO, Sigma-Aldrich, St. Louis, MO, cat. D2650) at 800-fold the tested concentration and stored at -70 degrees C prior to their use. All drugs and investigational agents were tested over a range starting from a high concentration at or near the clinical Cmax and decreasing in half-log increments. If the clinical Cmax for an agent had not been determined, the highest concentration tested was 10 microM.
2.3 Cell Culture. All cells were maintained in an incubator at 37 degrees C and 5% CO2 with 95% humidity. The PDC lines were cultured according to standard operating procedures established by the NCI PDMR. All PDCs were thawed and cultured in Matrigel-coated flasks prepared with a working solution of 1X Ham's F-12 nutrient mix, without supplementation (Invitrogen, cat. 11765054), 100 U/mL penicillin-streptomycin (Invitrogen, cat. 15140122), and 2.5% Matrigel (Corning Inc., cat. 354248) for the first three passages. The 857933-349-R-J2-PDC line was cultured in 6C/Colon 1B media, which includes advanced DMEM/F-12 (Thermo Fisher Scientific, cat. 12634028), 10 mM HEPES (Thermo Fisher Scientific, cat. 15630080), 1X GlutaMAX supplement (Thermo Fisher Scientific, cat. 35050061), 0.1 mg/mL primocin (InvivoGen, cat. ant-pm-2), 10% defined fetal bovine serum, heat inactivated (HyClone Laboratories Inc., cat. SH30070.03HI), 50% L-WRN conditioned media (ATCC, cat. CRL-3276), 1.25 mM N-Acetyl-L-cysteine (Sigma-Aldrich, cat. A9165), 10 mM nicotinamide (Sigma-Aldrich, cat. N0636), 1X B-27 supplement (Thermo Fisher Scientific, cat. 17504044), 1X N-2 supplement (Thermo Fisher Scientific, cat. 17502048), 10 microM Y-27632 dihydrochloride (Tocris Bioscience, cat. 1254), and 50 ng/mL human EGF recombinant protein (Thermo Fisher Scientific, cat. PHG0311). The 485176-168-R4-J1-PDC line was cultured in Panc media, which includes all 6C/Colon 1B media components plus 100 ng/mL human FGF-10 (Thermo Fisher Scientific, cat. 100-26), 500 nM SB-431542 (Selleckchem, cat. S1067), and gastrin (Tocris, cat. 3006).
[…]

[1] = second compound 0.0316 µM, first compound 0.0316 µM
[2] = second compound 0.0316 µM, first compound 0.316 µM
[3] = second compound 0.1 µM, first compound 0.0316 µM
[4] = second compound 0.1 µM, first compound 0.316 µM
[5] = second compound 0.316 µM, first compound 0.0316 µM
[6] = second compound 0.316 µM, first compound 0.316 µM
[7] = second compound 1 µM, first compound 0.0316 µM
[8] = second compound 1 µM, first compound 0.316 µM
[9] = second compound 3.16 µM, first compound 0.0316 µM
[10] = second compound 3.16 µM, first compound 0.316 µM
[11] = second compound 10 µM, first compound 0.0316 µM
[12] = second compound 10 µM, first compound 0.316 µM
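Further: spheroids exposed to the agents for seven days before readout.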
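Wherever viability, T/C is given: percent of vehicle control viability with DMSO wells as 100%.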

CC(=O)O[C@H]1C(=O)[C@@]2(C)[C@H]([C@H](OC(=O)c3ccccc3)[C@]3(O)C[C@H](OC(=O)[C@H](O)[C@@H](NC(=O)c4ccccc4)c4ccccc4)C(C)=C1C3(C)C)[C@]1(OC(C)=O)CO[C@@H]1C[C@@H]2O + Cc1cnc(CNC(=O)c2c(=O)c3ccc(N4CCCN(C)CC4)nc3n3c2sc2ccccc23)cn1
> 10000 nM: IC50 (second compound 0.1 µM)
825 nM: IC50 (second compound 0.0316 µM)
5200 nM: IC50 (second compound 0.316 µM)
active: viability, T/C (second compound 3.16 µM, first compound 0.1 µM) 4.44% | viability, T/C [10] 6.35% | viability, T/C (second compound 3.16 µM, first compound 1 µM) 12.5% | viability, T/C (second compound 3.16 µM, first compound 3.16 µM) 11.3% | viability, T/C (second compound 3.16 µM, first compound 10 µM) 7.23% | viability, T/C [11] 0.12% | viability, T/C (second compound 10 µM, first compound 0.1 µM) 0.16% | viability, T/C [12] 0.15% | viability, T/C (second compound 10 µM, first compound 1 µM) 0.17% | viability, T/C (second compound 10 µM, first compound 3.16 µM) 0.2% | viability, T/C (second compound 10 µM, first compound 10 µM) 0.16%
< 31.6 nM: IC50 (second compound 1 µM) | IC50 (second compound 3.16 µM) | IC50 (second compound 10 µM)
inactive: viability, T/C [1] 66.7% | viability, T/C (second compound 0.0316 µM, first compound 0.1 µM) 58.1% | viability, T/C [2] 56.9% | viability, T/C (second compound 0.0316 µM, first compound 1 µM) 40.8% | viability, T/C (second compound 0.0316 µM, first compound 3.16 µM) 54.3% | viability, T/C (second compound 0.0316 µM, first compound 10 µM) 48.4% | viability, T/C [3] 54.5% | viability, T/C (second compound 0.1 µM, first compound 0.1 µM) 54% | viability, T/C [4] 51.5% | viability, T/C (second compound 0.1 µM, first compound 1 µM) 45.1% | viability, T/C (second compound 0.1 µM, first compound 3.16 µM) 57.3% | viability, T/C (second compound 0.1 µM, first compound 10 µM) 53.6% | viability, T/C [5] 56.8% | viability, T/C (second compound 0.316 µM, first compound 0.1 µM) 55.1% | viability, T/C [6] 52.7% | viability, T/C (second compound 0.316 µM, first compound 1 µM) 52.9% | viability, T/C (second compound 0.316 µM, first compound 3.16 µM) 53.4% | viability, T/C (second compound 0.316 µM, first compound 10 µM) 46.8% | viability, T/C [7] 40.3% | viability, T/C (second compound 1 µM, first compound 0.1 µM) 41.5% | viability, T/C [8] 42.3% | viability, T/C (second compound 1 µM, first compound 1 µM) 42.9% | viability, T/C (second compound 1 µM, first compound 3.16 µM) 45.6% | viability, T/C (second compound 1 µM, first compound 10 µM) 34% | viability, T/C [9] 10.4%

CCc1c2c(nc3ccc(O)cc13)-c1cc3c(c(=O)n1C2)COC(=O)[C@]3(O)CC + Cc1cnc(CNC(=O)c2c(=O)c3ccc(N4CCCN(C)CC4)nc3n3c2sc2ccccc23)cn1
< 0.999 nM: IC50 (second compound 1 µM) | IC50 (second compound 3.16 µM) | IC50 (second compound 10 µM)
48 nM: IC50 (second compound 0.1 µM)
active: viability, T/C [6] 1.36% | viability, T/C [8] 0.15% | viability, T/C (second compound 3.16 µM, first compound 0.00316 µM) 12.2% | viability, T/C (second compound 3.16 µM, first compound 0.00999 µM) 4.86% | viability, T/C [9] 0.17% | viability, T/C (second compound 3.16 µM, first compound 0.0999 µM) 0.14% | viability, T/C [10] 0.15% | viability, T/C (second compound 10 µM, first compound 0.000999 µM) 0.15% | viability, T/C (second compound 10 µM, first compound 0.00316 µM) 0.14% | viability, T/C (second compound 10 µM, first compound 0.00999 µM) 0.19% | viability, T/C [11] 0.2% | viability, T/C (second compound 10 µM, first compound 0.0999 µM) 0.2% | viability, T/C [12] 0.14%
11.2 nM: IC50 (second compound 0.316 µM)
inactive: viability, T/C (second compound 0.0316 µM, first compound 0.000999 µM) 63.5% | viability, T/C (second compound 0.0316 µM, first compound 0.00316 µM) 60.3% | viability, T/C (second compound 0.0316 µM, first compound 0.00999 µM) 56.9% | viability, T/C [1] 53.3% | viability, T/C (second compound 0.0316 µM, first compound 0.0999 µM) 47% | viability, T/C [2] 30.9% | viability, T/C (second compound 0.1 µM, first compound 0.000999 µM) 66.2% | viability, T/C (second compound 0.1 µM, first compound 0.00316 µM) 65.6% | viability, T/C (second compound 0.1 µM, first compound 0.00999 µM) 52.2% | viability, T/C [3] 52.7% | viability, T/C (second compound 0.1 µM, first compound 0.0999 µM) 47.1% | viability, T/C [4] 17.5% | viability, T/C (second compound 0.316 µM, first compound 0.000999 µM) 52.9% | viability, T/C (second compound 0.316 µM, first compound 0.00316 µM) 60% | viability, T/C (second compound 0.316 µM, first compound 0.00999 µM) 51.5% | viability, T/C [5] 34.5% | viability, T/C (second compound 0.316 µM, first compound 0.0999 µM) 36.9% | viability, T/C (second compound 1 µM, first compound 0.000999 µM) 38.9% | viability, T/C (second compound 1 µM, first compound 0.00316 µM) 35% | viability, T/C (second compound 1 µM, first compound 0.00999 µM) 35.6% | viability, T/C [7] 28.7% | viability, T/C (second compound 1 µM, first compound 0.0999 µM) 14.9% | viability, T/C (second compound 3.16 µM, first compound 0.000999 µM) 13.5%
53.2 nM: IC50 (second compound 0.0316 µM)
